Measured values reported in US20020168365A1, “Method for modulating granzyme B uptake and for identifying modulators thereof” (priority 2000, published 2002).

Legend:
[1] = tested on: Jurkat cells; assay: TUNEL and annexin V apoptosis assays with grB and AD; format: cell-based, human; conditions: for TUNEL positive cells: 3 hr with pretreated grB and AD; for percentage of TUNEL positive cells after incubation with grB and AD / percentage of annexin V positive cells after incubation with grB and AD: with 25 mM monosaccharide
Protocol: (§1) GrB was treated for 1 hr at 37° C. in a phosphate-free (saline) or a high-phosphate (64.5 mM Na2HPO4.7H2O, 21 mM KH2PO4) buffer with calf intestinal alkaline phosphatase (1-10 U), 20 nM of the 37 kDa catalytic subunit of recombinant protein phosphatase-1 (Bagu et al, 1997), or with vehicle control. Cells were then incubated with the treated grB at 4° C. for 30-60 min. For the TUNEL or annexin V assays, cells were then washed twice before incubation at 37° C. with AD.
(§2) M6P and various other monosaccharides at different concentrations were added to cells for 15 min at 4° C. before the addition of labeled grB, or at room temperature before the addition of grB and AD.
(§3) GrB was incubated with sCI-MPR at various concentrations in PBS/0.1% BSA for 30 min at 4° C. Subsequently, cells were incubated with grB/sCI-MPR for 30-60 min at 4° C. and washed twice, before analysis of binding, or before the addition of AD for TUNEL and annexin V analysis.
For the in vitro killing assays, 10 pfu per cell of replication-deficient adenovirus (AD) were added subsequent to grB addition. Analysis of DNA fragmentation by TUNEL analysis has been described previously (Heibein et al., 1999). TUNEL materials (Roche Diagnostics) were used as per the manufacturer's instructions. Phosphatidylserine externalization was measured as previously described (Heibein et al., 1999) using annexin V-FITC (PharMingen). Percent specific TUNEL/annexin V positive cells was calculated as: [(% positive labeling cells with grB and AD-% positive labeling cells without grB and AD)/(100-% positive labeling cells without grB and AD)]×100.
Cells were resuspended at 10^6 cells/ml in 0.1% BSA/DMEM. Adenovirus (10 PFU/cell) and granzyme B (grB) were added directly to the cell suspension. Cells were incubated at 37° C. for 3 h. For staurosporine killing, cells were resuspended at 10^6 cells/ml in their normal growth medium and staurosporine (2.5 μM) was added directly to the cell suspension. Cells were incubated at 37° C. for 2, 4 and 8 h.
(§4) DNA fragmentation was monitored by flow cytometric analysis via the terminal deoxynucleotidyltransferase-mediated dUTP-biotin nick end labeling (TUNEL) method. Flow cytometric analysis was performed on a Becton Dickinson FACScanθ flow cytometer equipped with an argon-ion laser with 15 mW of excitation at 488 nm. Emission wavelengths were detected through the FL1 channel. Data were acquired on 10,000 cells per sample with light scatter signals at linear gain and fluorescence signals at logarithmic gain. Percent specific TUNEL positive cells was calculated as follows: [(% positive labeling cells with grB and AD−% positive labeling cells without grB and AD)/(AD−% positive labeling cells without grB and AD)]×100.
as §4, with “Phosphatidylserine externalization” for “DNA fragmentation”, “monitored using the ApoAlertθ annexin V apoptosis kit (Clontech) according to the protocol provided” for “monitored”, “by” for “by flow cytometric analysis via”, “manufacturer.” for “terminal deoxynucleotidyltransferase-mediated dUTP-biotin nick end labeling (TUNEL) method.”, “Annexin V” for “TUNEL”

[2] = tested on: Jurkat cells; assay: GrB binding assay (flow cytometry, labeled grB at 4° C.); set-up: species or system human; conditions: for effect on grB binding: monosaccharide with labeled grB, 4° C. (FIG. 3A)
Protocol: Cells (1-2×10^5) were washed twice and resuspended in buffer before the addition of grB-biotin or -OG in a final volume of 20 μl for a 30-60 min incubation and washed again twice. In the case of grB-biotin, cells were then incubated with streptavidin-cychrome for 20 min and washed twice. Unless otherwise indicated, ˜25 ng grB-biotin or -OG was used to label cells. All steps of the assay were carried out at 4° C. to prevent intracellular uptake of grB. PBS/0.1% BSA buffer was used throughout the procedure. In some cases, results are presented as the relative MFI, which represents the MFI of the grB-labeled population minus the MFI of the unlabeled population.
as §1, §2, §3

[3] = biological target: cell surface MPR on Jurkat cells; assay: cell-based or functional assay
[4] = tested on: MPR^− and CI-MPR^+ target cells; assay: CTL killing assays (^3H-thymidine release and ^51Cr-release); format: cell-based, murine; conditions: Mus musculus; CTL effectors with targets in the presence of M6P (data not shown); read-out: half-maximal inhibition of target cell DNA fragmentation
Protocol: The ^51Cr- (lysis) and ^3H-thymidine (DNA fragmentation) release assays have been previously described (Darmon et al., 1996). Target cells (1×10^4 cells/well for the ^51Cr-release assay and 5×10^4 cells/well for the ^3H-thymidine-release assay) were incubated with CTL at various E:T ratios (effector:target) in the presence or absence of blocking murine- (1 μg/ml) or human- (200 ng/ml) anti-Fas mAb. Data from one experiment represent the mean of data from triplicate samples. Typically, spontaneous ^51Cr-release and DNA fragmentation was less than 10% and 5%, respectively. Percent specific lysis and DNA fragmentation was calculated as: [(sample cpm−spontaneous cpm)/(total cpm−spontaneous cpm)]×100.

[5] = tested on: CI-MPR^+ cells; assay: GrB uptake assay (confocal microscopy, grB-OG at 37° C.); format: cell-based, murine L cells transfected with human CI-MPR; conditions: 20 mM M6P
Protocol: Cells on coverslips were incubated for 20 min at 37° C. with DMEM/0.1% BSA containing 25 ng grB-OG that was untreated, mock-treated, or alkaline phosphatase-treated as described above. For the M6P inhibition studies, cells were treated with 20 mM M6P in DMEM/0.1% BSA for 10 min at 37° C., before the addition of grB-OG, as above. Cells were then washed twice with PBS/0.1% BSA, fixed with 2% paraformaldehyde in PBS, and allowed to dry briefly before the coverslips were mounted and examined by confocal microscopy. Imaging was performed with a Zeiss Axiovertθ 100M LSM510 laser scan microscope and analyzed using LSM510 software.

[6] = tested on: MPRs in all cell lines; assay: GrB-OG binding after M6P preincubation (Example 2, FIG. 8); conditions: 20 mM M6P, 37° C., 15 minutes prior to grB-OG
Protocol: Cells (1×10^5) were washed twice and resuspended in buffer before addition of grB-biotin or grB-OG in a final volume of 20 μl for a 30-60 min incubation and washed again twice. In the case of grB-biotin, cells were then incubated with streptavidin-cychrome for 20 min and washed twice. In order to measure cell surface binding, all steps of the binding assay were carried out at 4° C. to prevent intracellular uptake of grB. 0.1% BSA/PBS buffer was used throughout the procedure. All steps of the grB uptake assay were carried out at 37° C. Flow cytometric analysis was performed on a Becton Dickinson FACScanθ flow cytometer equipped with an argon-ion laser with 15 mW of excitation at 488 nm. Emission wavelengths were detected through the FL1 and FL3 channel for grB-OG and grB-biotin, respectively. Data were acquired on 10,000 cells per sample with light scatter signals at linear gain and fluorescence signals at logarithmic gain. Results are presented as the relative MFI, which represents the MFI of the grB-labeled population minus the MFI of the unlabeled population. M6P at 20 mM was added to cells for 15 min at 37° C. before the addition of labeled grB.

[7] = tested on: AD containing a β-galactosidase insert; assay: Infection of AD containing a β-galactosidase insert; format: cell-based
[8] = preincubation of grB with soluble CI-MPR, Jurkat cells (data not shown)

grB pretreated with alkaline phosphatase in phosphate-containing buffer: control grB treated with phosphatase in a phosphate-containing buffer to inhibit phosphatase activity
TUNEL positive cells ([1]; Jurkat cells): 50%

O=C[C@H](O)[C@@H](O)[C@H](O)[C@H](O)CO [D-glucose, reference compound]
percentage of TUNEL positive cells after incubation with grB and AD ([1]; 3 hr, Jurkat cells): 66%
percentage of annexin V positive cells after incubation with grB and AD ([1]; 3 hr, Jurkat cells): 40%
effect on grB binding [2]: no effect

human granzyme B purified from the cytolytic granules of YT-Indy cells (from UniProt P10144 21-247) (enzyme)
TUNEL positive Jurkat cells after 3 hr with grB (pretreated with alkaline phosphatase in phosphate-containing buffer) and AD [3]: 50%

dephosphorylated human granzyme B (treated with calf intestinal alkaline phosphatase in phosphate-free buffer) (from UniProt P10144 21-247) (enzyme)
TUNEL positive Jurkat cells after 3 hr with phosphatase-treated grB and AD [3]: < 5%

dephosphorylated grB: grB treated with calf intestinal alkaline phosphatase in phosphate-free buffer
TUNEL positive cells ([1]; Jurkat cells): Less than 5%

O=C[C@@H](O)[C@@H](O)[C@H](O)[C@H](O)CO [D-mannose, reference compound]
percentage of TUNEL positive cells after incubation with grB and AD ([1]; 3 hr, Jurkat cells): 52%
percentage of annexin V positive cells after incubation with grB and AD ([1]; 3 hr, Jurkat cells): 32%
effect on grB binding [2]: no effect

O=C[C@@H](O)[C@@H](O)[C@H](O)[C@H](O)COP(=O)(O)O [M6P, mannose 6-phosphate]
IC50 [4]: > 25000 µM
concentration that markedly reduced in a dose-dependent manner the percentage of TUNEL or annexin V positive cells ([1]; Jurkat cells, grB and AD, 3 hr): ≥ 200 µM
binding of grB to Jurkat cells ([2]; M6P at 20 mM, 4° C.): considerably reduced binding
IC50 ([2]; labeled grB, 4° C., flow cytometry, Jurkat cells (FIG. 3A), read-out: half-maximal inhibition of binding of grB): 1000 µM
uptake of grB (grB detected within the cells) [5]: essentially no grB could be detected within the cells
binding of grB to the MPRs [6]: significantly reduced binding
effect on infection of AD containing a β-galactosidase insert [7]: No effect

soluble CI-MPR: Human soluble cation-independent mannose 6-phosphate receptor (Valenzano et al., 1995)
concentration that markedly reduced in a dose-dependent manner grB/AD-mediated apoptosis [1, 8]: ≥ 100 µg/mL
concentration that markedly reduced in a dose-dependent manner the cell surface binding of grB [2, 8]: ≥ 100 µg/mL

O=C[C@H](O)[C@@H](O)[C@H](O)[C@H](O)COP(=O)(O)O [D-glucose 6-phosphate, reference compound]
percentage of TUNEL positive cells after incubation with grB and AD ([1]; 3 hr, Jurkat cells): 60%
percentage of annexin V positive cells after incubation with grB and AD ([1]; 3 hr, Jurkat cells): 41%
concentrations at which inhibitory effect on grB binding was evident ([2]; labeled grB, 4° C.): above 25 mM
effect on grB binding [2]: slight inhibitory effect
